pIC50: −log10 of the molar value.
Tests used:
Experiment in all cases: Inhibitory Activity of the Compounds of the Invention Against ROS1, NTRK and ALK and their Drug-Resistant Kinases
[1] = biological target: NT-3 growth factor receptor (Homo sapiens, UniProt Q16288)
Procedure: (§1) Inhibition of protein kinase activity by compounds was carried out on the Radio-tagged HotSpot kinase experimental platform of Reaction Biology Corporation. Fresh reaction solution (20 mM HEPESpH 7.5, 10 mM MgCl2, 1 mM EGTA, 0.02% Brij35, 0.02 mg/ml BSA, 0.1 mM Na3VO4, 2 mM DTT, 1% DMSO) containing corresponding substrates was prepared, cofactor and kinase to be tested were added into the above solution and mixed gently. Echo550 pipetting system was used to add the test compound DMSO solution to each well (the blank control group was added with the corresponding volume of DMSO), then 33P-ATP (with a final specific activity of 0.01 μCi/μL) was added to start the reaction. The reaction solution was incubated at room temperature for 120 minutes.

[2] = biological target: Proto-oncogene tyrosine-protein kinase ROS (Homo sapiens, UniProt P08922)
Procedure: as §1

[3] = biological target: High affinity nerve growth factor receptor (Homo sapiens, UniProt P04629)
Procedure: as §1

Measured: pIC50

NT-3 growth factor receptor, sequence (Q16288 whole entry): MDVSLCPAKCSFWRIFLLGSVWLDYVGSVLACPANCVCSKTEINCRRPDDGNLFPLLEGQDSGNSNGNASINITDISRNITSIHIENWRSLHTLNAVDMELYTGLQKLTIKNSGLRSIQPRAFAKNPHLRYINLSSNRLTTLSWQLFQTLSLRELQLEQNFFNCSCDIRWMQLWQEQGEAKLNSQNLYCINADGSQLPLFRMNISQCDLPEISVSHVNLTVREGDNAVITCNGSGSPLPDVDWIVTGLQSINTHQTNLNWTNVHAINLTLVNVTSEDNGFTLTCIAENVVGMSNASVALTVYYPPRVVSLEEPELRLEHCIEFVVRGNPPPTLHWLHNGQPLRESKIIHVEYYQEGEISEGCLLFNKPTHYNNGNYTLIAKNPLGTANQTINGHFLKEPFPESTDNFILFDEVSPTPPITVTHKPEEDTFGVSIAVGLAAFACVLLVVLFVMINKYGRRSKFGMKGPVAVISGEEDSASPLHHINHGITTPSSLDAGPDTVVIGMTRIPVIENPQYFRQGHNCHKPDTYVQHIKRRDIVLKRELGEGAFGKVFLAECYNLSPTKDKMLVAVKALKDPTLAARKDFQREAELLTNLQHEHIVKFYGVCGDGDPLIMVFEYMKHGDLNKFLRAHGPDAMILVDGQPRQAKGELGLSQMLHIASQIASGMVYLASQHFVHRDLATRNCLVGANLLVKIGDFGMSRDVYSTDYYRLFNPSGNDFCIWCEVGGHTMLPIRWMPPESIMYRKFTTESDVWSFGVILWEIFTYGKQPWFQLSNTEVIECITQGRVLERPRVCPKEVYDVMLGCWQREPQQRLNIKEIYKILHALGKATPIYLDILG
Proto-oncogene tyrosine-protein kinase ROS, sequence (P08922 whole entry): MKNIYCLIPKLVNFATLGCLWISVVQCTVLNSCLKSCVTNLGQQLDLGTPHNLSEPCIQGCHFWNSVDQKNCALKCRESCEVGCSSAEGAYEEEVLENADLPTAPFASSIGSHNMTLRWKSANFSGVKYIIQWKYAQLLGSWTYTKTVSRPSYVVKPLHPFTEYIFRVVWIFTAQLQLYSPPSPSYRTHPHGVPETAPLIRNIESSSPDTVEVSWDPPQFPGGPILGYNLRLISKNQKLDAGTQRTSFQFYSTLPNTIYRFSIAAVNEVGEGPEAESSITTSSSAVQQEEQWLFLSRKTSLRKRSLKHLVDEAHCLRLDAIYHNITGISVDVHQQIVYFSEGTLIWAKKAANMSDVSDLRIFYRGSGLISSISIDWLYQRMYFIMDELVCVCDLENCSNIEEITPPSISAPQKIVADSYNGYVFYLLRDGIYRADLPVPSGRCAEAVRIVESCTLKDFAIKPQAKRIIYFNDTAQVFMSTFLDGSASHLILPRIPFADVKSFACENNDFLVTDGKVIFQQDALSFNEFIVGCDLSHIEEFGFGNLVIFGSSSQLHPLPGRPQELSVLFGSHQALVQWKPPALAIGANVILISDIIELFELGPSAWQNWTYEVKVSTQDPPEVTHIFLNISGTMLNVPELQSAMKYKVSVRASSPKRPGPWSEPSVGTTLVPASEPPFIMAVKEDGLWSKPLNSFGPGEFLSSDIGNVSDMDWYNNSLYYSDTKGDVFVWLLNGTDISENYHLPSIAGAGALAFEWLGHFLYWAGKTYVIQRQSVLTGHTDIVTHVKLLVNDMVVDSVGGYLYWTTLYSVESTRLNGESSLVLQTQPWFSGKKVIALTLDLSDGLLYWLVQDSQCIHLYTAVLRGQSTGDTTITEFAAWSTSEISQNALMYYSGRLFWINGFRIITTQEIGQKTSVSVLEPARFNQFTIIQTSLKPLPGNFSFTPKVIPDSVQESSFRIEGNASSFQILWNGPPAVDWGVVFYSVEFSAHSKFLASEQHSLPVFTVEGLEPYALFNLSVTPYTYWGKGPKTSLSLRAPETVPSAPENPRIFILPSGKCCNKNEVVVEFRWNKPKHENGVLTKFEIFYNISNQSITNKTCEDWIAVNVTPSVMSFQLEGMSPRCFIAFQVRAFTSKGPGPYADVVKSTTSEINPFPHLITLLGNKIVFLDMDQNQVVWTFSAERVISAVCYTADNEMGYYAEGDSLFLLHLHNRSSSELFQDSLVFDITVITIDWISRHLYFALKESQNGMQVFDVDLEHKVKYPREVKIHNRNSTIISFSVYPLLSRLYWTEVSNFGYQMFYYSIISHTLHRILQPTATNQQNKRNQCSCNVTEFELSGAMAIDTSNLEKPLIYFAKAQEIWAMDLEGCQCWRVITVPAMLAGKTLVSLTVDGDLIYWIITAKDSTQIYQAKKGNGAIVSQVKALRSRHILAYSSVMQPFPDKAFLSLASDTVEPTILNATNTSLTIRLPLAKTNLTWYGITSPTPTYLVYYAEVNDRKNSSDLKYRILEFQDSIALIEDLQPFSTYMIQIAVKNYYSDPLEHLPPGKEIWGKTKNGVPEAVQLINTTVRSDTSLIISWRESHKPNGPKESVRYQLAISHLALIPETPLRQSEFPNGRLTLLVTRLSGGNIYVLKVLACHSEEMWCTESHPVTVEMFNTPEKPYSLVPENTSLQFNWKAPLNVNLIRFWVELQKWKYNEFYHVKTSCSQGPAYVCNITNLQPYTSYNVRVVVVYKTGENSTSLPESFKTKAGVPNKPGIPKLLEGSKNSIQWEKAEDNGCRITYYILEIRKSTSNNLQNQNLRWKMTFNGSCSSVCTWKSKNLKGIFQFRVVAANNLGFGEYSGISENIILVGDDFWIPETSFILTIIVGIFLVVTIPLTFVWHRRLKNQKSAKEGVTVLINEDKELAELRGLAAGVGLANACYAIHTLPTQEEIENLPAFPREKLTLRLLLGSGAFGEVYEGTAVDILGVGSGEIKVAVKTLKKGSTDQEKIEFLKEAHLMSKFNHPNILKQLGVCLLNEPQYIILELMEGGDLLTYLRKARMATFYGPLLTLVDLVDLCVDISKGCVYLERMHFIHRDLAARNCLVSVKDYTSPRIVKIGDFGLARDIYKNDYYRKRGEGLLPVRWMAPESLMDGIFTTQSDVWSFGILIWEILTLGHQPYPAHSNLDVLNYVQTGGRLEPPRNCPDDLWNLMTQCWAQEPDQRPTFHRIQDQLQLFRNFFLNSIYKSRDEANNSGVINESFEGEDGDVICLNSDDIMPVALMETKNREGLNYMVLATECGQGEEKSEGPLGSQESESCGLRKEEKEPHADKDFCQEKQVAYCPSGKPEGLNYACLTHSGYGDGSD
High affinity nerve growth factor receptor, sequence (P04629 whole entry): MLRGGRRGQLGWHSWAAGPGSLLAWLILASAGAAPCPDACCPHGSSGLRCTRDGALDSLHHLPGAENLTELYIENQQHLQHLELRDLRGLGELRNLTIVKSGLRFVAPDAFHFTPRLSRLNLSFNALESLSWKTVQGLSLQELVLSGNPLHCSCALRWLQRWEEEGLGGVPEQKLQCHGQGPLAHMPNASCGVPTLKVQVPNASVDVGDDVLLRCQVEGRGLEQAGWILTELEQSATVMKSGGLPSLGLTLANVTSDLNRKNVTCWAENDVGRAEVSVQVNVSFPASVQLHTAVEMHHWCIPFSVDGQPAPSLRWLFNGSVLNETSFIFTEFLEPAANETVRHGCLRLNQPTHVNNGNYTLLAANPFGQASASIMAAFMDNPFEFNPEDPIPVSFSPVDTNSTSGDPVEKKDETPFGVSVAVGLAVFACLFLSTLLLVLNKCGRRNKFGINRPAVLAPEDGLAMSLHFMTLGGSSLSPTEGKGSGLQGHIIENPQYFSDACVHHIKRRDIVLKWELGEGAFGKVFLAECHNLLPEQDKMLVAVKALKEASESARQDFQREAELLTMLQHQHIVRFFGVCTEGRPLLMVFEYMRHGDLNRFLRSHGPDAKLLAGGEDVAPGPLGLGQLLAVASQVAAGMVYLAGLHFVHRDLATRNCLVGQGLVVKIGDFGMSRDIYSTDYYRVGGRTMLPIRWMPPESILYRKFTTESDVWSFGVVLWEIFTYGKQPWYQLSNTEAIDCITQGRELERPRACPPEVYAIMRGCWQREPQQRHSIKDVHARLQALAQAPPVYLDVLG

C[C@@H](Oc1ccn2ncc(C3=NOC(C)(C)N3)c2n1)c1c(Cl)ccc(F)c1Cl [US12435089, Example 9]
> 9.30: all assays above

Source: BindingDB's records for patent US12435089 (Tyk Medicines, 2025)
